# Test results reported in paper PMC13672995, “NCR13 peptide protects soybean against Cercospora sojina using multi-faceted modes of action and additive interaction with chemical fungicides” (Journal of Experimental Botany, 2025).
# Where no end group is shown, it is not given here.
# Experiments:
# [1] = tested on: C. sojina Cs350 (fungicide resistant); assay: Peptide-fungicide checkerboard assay; type: cell-based, Cercospora sojina
# Experimental: (§1) Synergy between NCR13_PFV1 and the widely used QoI foliar fungicides, azoxystrobin (Sigma-Aldrich, Cat No: 31697), trifloxystrobin (Sigma-Aldrich, Cat No: 46447), and pyraclostrobin (Sigma-Aldrich, Cat No: 33696), were evaluated using checkerboard assays. This assay was performed in a 96-well plate and the preparation of conidial suspension, peptide dilutions, and fungicide dilutions were similar to the in vitro antifungal activity assay described above. The presence of an alternative respiration pathway allows some fungi including C. sojina to germinate even in the presence of a high dose of QoI fungicides in vitro ([Ziogas et al., 1997]; [Zhang et al., 2012]). Therefore, to prevent alternative respiration in C. sojina, salicylhydroxamic acid (SHAM) was added in each reaction at the final concentration of 60 µg ml^–1 ([Zhang et al., 2012]). The conidia, peptide, fungicide, and SHAM were added in a 96-well plate at the v/v ratio of 4:1:1:2 (50 µl:12.5 µl:12.5 µl:25 µl) in the final reaction volume of 100 µl, and the plate was incubated at room temperature for 96 h (4 d). After 96 h, MIC values of the peptide–fungicide combination, peptide alone, and fungicide alone were calculated based on microscopy as well as the resazurin cell viability assay. The fractional inhibitory concentration (FIC) index was calculated using the formula FIC = (MICA+B/MICA) + (MICB+A/MICB), where MICA and MICB are the MIC for peptide (A) alone and fungicide (B) alone, respectively, MICA+B is the MIC for peptide in combination with fungicide (A+B), and MICB+A is the MIC for fungicide in combination with peptide (B+A). The FIC index was interpreted as: synergistic, ≤0.5; additive, >0.5–1.0; indifferent, >1 to <4.0; or antagonistic, ≥4.0.
# [2] = tested on: C. sojina Cs320 (fungicide sensitive); assay: Peptide-fungicide checkerboard assay; type: cell-based, Cercospora sojina; conditions: Cs320, in vitro, 96 h
# Experimental: as §1
# [3] = tested on: C. sojina QoI fungicide-sensitive isolate Cs320; assay: microbe, parasite or virus in culture; type: cell-based, Cercospora sojina
# Experimental: (§2) In vitro antifungal activity of AFPs and QoI fungicides was determined using 96-well plate assays as described ([Velivelli et al., 2020]) with slight modifications. Briefly, 2- to 3-week-old C. sojina was used to make a conidial suspension in 2× SFM at the final concentration of ∼10^5 conidia ml^−1. Simultaneously, peptide dilutions (in water) at various concentrations were made. Fungicides were dissolved in 50% acetone and 50% water to make a stock solution of 500 µM, and serial dilutions were made in water as needed. The peptide–conidia or the fungicide–conidia mixture at the ratio of 1:1 (45 µl:45 µl) was added in a 96-well plate and incubated at room temperature for 48 h, after which MICs of the peptides/fungicides were calculated based on microscopy as well as the resazurin cell viability assay ([Velivelli et al., 2020]).
# [4] = tested on: C. sojina Cs350 conidia and germlings; assay: Plasma membrane permeabilization assay (SYTOX Green); type: cell-based, Cercospora sojina; conditions: Cs350; 0.5 µM SG; confocal microscopy
# Experimental: Membrane permeabilization of C. sojina Cs350 by NCR13_PFV1 and azoxystrobin was analyzed by visualizing the influx of SYTOX Green (SG) (Thermo Scientific) using time-lapse confocal microscopy. Germlings grown for 6–8 h or conidia of C. sojina were mixed with various concentrations of NCR13_PFV1, azoxystrobin, or both and 0.5 µM SG and were observed under confocal microscopy at an excitation wavelength of 500 nm and an emission wavelength ranging from 510 nm to 600 nm at specific time intervals. A z-stack at each time point was acquired using a ×63 water immersion objective lens (HC PL Apochromat CS2).
# [5] = tested on: azoxystrobin-resistant C. sojina Cs350 conidia; assay: Cell death detection assay (propidium iodide, confocal microscopy); type: cell-based, Cercospora sojina; conditions: azoxystrobin 48 μM alone; within 1 h; PI staining; n=3
# Experimental: The fungicidal activity of azoxystrobin and peptide NCR13_PFV1 in azoxystrobin-resistant C. sojina Cs350 was analyzed by visualizing the influx of a cell death indicator dye propidium iodide (PI) using time-lapse confocal microscopy. The C. sojina conidia were treated with various concentrations of azoxystrobin, NCR13_PFV1, azoxystrobin plus NCR13_PFV1, or water and 0.5 μg ml^–1 PI, and were observed under confocal microscopy at an excitation and emission wavelength of 500 nm and 545–690 nm, respectively. Z-stacks at each time point were acquired using a ×63 water immersion objective lens (HC PL Apochromat CS2). For each sample, the number of live and dead cells after 1 h of peptide, fungicide, or combination treatment was determined.
# [6] = tested on: C. sojina Cs350 on soybean cv. Blackhawk (FLS); assay: In planta post-inoculation assay of NCR13_PFV1 and azoxystrobin combinations; type: in vivo, Cercospora sojina; conditions: azoxystrobin alone sprayed at 3 µM and 6 µM
# Experimental: To further test additive/synergistic interaction between NCR13_PFV1 and azoxystrobin against the fungicide-resistant isolate Cs350, in planta assays were performed. These assays were similar to the post-inoculation in planta assays as mentioned above. Briefly, second or third trifoliate leaves of soybean were first sprayed with 1 ml of Cs350 conidial suspension (1×10^5 ml^−1) followed by spray application with 1 ml of NCR13_PFV1 (24 µM) or azoxystrobin (3 µM or 6 µM) or their combination (24 µM NCR13_PFV1 plus 3 µM azoxystrobin or 24 µM NCR13_PFV1 plus 6 µM azoxystrobin) or water after 2 h of pathogen inoculation. Plants were incubated in the growth chamber, and disease scoring was done as described above.
# [7] = Peroxidase assay (TMB substrate); type: biochemical; conditions: heme 5 µM, peptide 5 µM, absorption at 370 nm and 652 nm
# Experimental: A Pierce TMB substrate kit (Thermo Scientific) was used to measure the peroxidase activity of heme. In a transparent 96-well plate, 50 µl of TMB substrate and 50 µl of […] were added followed by addition of heme (5 µM) or peptides plus heme (5 µM each). The reaction progression was measured in the Tecan plate reader, by recording UV-vis absorption values at 370 nm and 652 nm for every minute up to 1 h.
# [8] = Heme-peptide binding assay (colour change); conditions: equimolar heme and peptide, 100 µM, 1 h, room temperature
# Experimental: Heme solutions were freshly prepared by dissolving hemin chloride (Sigma Cat No: 3741) in 0.1 M NaOH and used within an hour after preparation. Two heme-sequestering peptides, NCR247 and NCR455 ([Montiel et al., 2017]; [Sankari et al., 2022]), were used as positive controls, and water-only treatment as a negative control. The equimolar concentration of heme and peptide (100 µM) or water were mixed and incubated at room temperature for 1 h. When dissolved in NaOH, heme is light to dark brown in color; however, when it binds to a peptide, the color changes to reddish-brown as described by [Sankari et al. (2022)]. The change in color of heme to reddish-brown indicated the heme binding ability of the peptide.
# [9] = tested on: C. sojina QoI fungicide-resistant isolate Cs350; type: cell-based, Cercospora sojina
# Experimental: as §2
# [10] = tested on: fungicide-sensitive and -resistant isolates of C. sojina; assay: In vitro antifungal activity assay (MIC stated across isolates); type: cell-based, Cercospora sojina
# Experimental: as §2
# [11] = SFM, ~10^5 conidia ml−1, room temperature, 48 h, resazurin cell viability assay and microscopy
molecule,measurement,setting,value
"CO/C=C(/C(=O)OC)c1ccccc1Oc1cc(Oc2ccccc2C#N)ncn1 [Azoxystrobin, azoxystrobin]",interaction with NCR13_PFV1 by FIC index,"[1]; Cs350, in vitro, 96 h","additive (additive, >0.5–1.0)"
same,FIC score,"[1]; pair azoxystrobin / NCR13_PFV1, Cs350, 4 d",≤ 1
same,Combination MIC,"[1]; pair azoxystrobin / NCR13_PFV1, Cs350, 4 d, SHAM 60 µg ml–1, microscopy",48 µM
same,MIC,"[1]; pair azoxystrobin / NCR13_PFV1, Cs350, 4 d, SHAM 60 µg ml–1, microscopy, highest fungicide concentration 48 µM, read-out: Individual MIC",> 48 µM
same,interaction with NCR13_PFV1 by FIC index,[2],"additive (additive, >0.5–1.0)"
same,MIC (µM) against Fungicide sensitive C. sojina isolate (Cs320),"[3]; QoI fungicides, determined in 2 days, 0.02 µM lowest concentration tested",0.09 to 0.18 µM
same,plasma membrane permeabilization (SYTOX Green uptake),[4],did not permeabilize the plasma membrane
same,cell death,[5],11%
same,FLS symptoms in planta,[6],able to reduce FLS symptoms in planta
"RNGCIVDARCPYQKCSYPLYCRRR [NCR455, reference compound]",peroxidase activity of heme and FeSO4 in the presence of peptide,[7],reduced or stopped
same,heme binding (colour change of heme from brown to reddish-brown),[8],visible color change of heme from brown to reddish-brown
"RNGCIVDPRCPYQQCRRPLYCRRR [NCR247, reference compound]",peroxidase activity of heme and FeSO4 in the presence of peptide,[7],reduced or stopped
same,heme binding (colour change of heme from brown to reddish-brown),[8],visible color change of heme from brown to reddish-brown
TKPCQSDKDCKKFACRKPKVPKCINGFCKCVR (disulfide (positions not given here)) [NCR13_PFV2],"MIC (μM) against C. sojina isolates, Fungicide sensitive, Cs320",[3]; [11],1.5 µM
same,fold increase of MIC with increasing iron concentration,[9]; FeSO4 in SFM,2 fold
same,"MIC (μM) against C. sojina, Fungicide resistant, Cs350",[9]; [11],3 µM
same,peroxidase activity of heme and FeSO4 in the presence of peptide,[7],not reduced or stopped
same,fold less potent than NCR13_PFV1,[10]; from MIC against C. sojina,2 fold
same,MIC against fungicide-sensitive and -resistant isolates of C. sojina,"[10]; range over Cs320 and Cs350, 48 h",1.5 to 3 µM
same,heme binding (colour change of heme from brown to reddish-brown),[8],no such color change
